Patent publication US20200216906A1, “METHODS AND COMPOSITIONS RELATING TO THE DIAGNOSIS AND TREATMENT OF CANCER” (PRESIDENT AND FELLOWS OF HARVARD COLLEGE, priority 2015, published 2020)
Where a name gives a salt, the structure may show the parent alone. Read-outs that look alike come from different tables or passages of the source.

How the values were obtained:
[1] = tested on: Panc02.13 cells expressing vector only (02.13-WT); test: Kinetic cell growth assay, Panc02.13 cells expressing vector only; assay type: cell-based, human; details: Homo sapiens
Method: (§1) Panc02.13 cells were used to express YAPS6A (or vector controls) under sparse and dense cultures. Expression was confirmed by confocal microscopy (data not shown). Suppression of the Hippo pathway by expression of non-phospho, active form of YAP (YAPS6A) sensitized pancreatic cancer cells to gemcitabine and 5-FU (FIGS. 6 and 7). Apoptosis was measured by immunobloting with cleaved caspases 3/7 or PARP. Blots were also stained with anti-β-actin for loading control. The effect of Hippo pathway suppression on gemcitabine and 5-FU senstitization was maintained in 3D spheroid culture (FIG. 8). The effects of eleven cytotoxic drugs on the growth of Panc02.13 cells expressing vector only or YAPS6A construct grown under low or high densities were determined (Table 1).
(§2) The effect of gemcitabine on pancreatic cancer cell growth was studied using a kinetic cell growth assay. Pancreatic cancer cells were plated on 96-well plates (Essen ImageLock, Essen Instruments, MI, US) at varying densities (2-4×10^3 for low density or 15-20×10^3 for high density experiments). Small molecule inhibitors at different doses were added 24 hours after plating and cell confluence was monitored with Incucyte Live-Cell Imaging System and software (Essen Instruments). Confluence was observed every hour for 48-144h or until the control (DMSO only) samples reached 100% confluence.
as §2, with “Kinetic Cell growth assay. The” for “The”, “(2-4X103” for “(2-4×10^3”, “15-20X103” for “15-20×10^3”, “Incucyte™” for “Incucyte”

[2] = tested on: Panc02.13 cells expressing YAPS6A construct; test: Kinetic cell growth assay, Panc02.13 cells expressing YAPS6A; assay type: cell-based, human; details: for EC50: Homo sapiens, YAPS6A construct
Method: as §1, §2
Cell lines (Panc02.13, Panc10.05 or Miapaca2) were transfected with YAPS6A constructs (Addgene) using Lipofectamine™ (Invitrogen, Carlsbad, Calif.) following the manufacturer's instructions and 48 hour post-transfection selected in 5-10 μg/ml Blasticidin (InvivoGen, San Diego, Calif.). The clones screened for YAPS6A expression by Western blot. Stable cell lines were maintained in complete medium and 5 μg/ml Blasticidin.
as §2, with “Kinetic Cell growth assay. The” for “The”, “(2-4X103” for “(2-4×10^3”, “15-20X103” for “15-20×10^3”, “Incucyte™” for “Incucyte”

[3] = tested on: Panc02.13 cells expressing the YAPS6A mutant; test: 3D spheroid growth assay, Panc02.13 cells expressing YAPS6A; assay type: cell-based, human; details: YAP activity increased
[4] = tested on: cancer cell lines harboring Hippo pathway genetic alterations; test: 3D spheroid growth assay, cell lines with Hippo pathway alterations; assay type: cell-based; details: cell lines from five diverse cancer types
Text: Genetic defects that inhibit the Hippo pathway can induce tumors in model organisms. Such mutations occur in a broad range of human carcinomas, including lung, mesothelioma, colorectal, ovarian and liver cancers (Harvey et al., 2013) (Table S3). Mutations in NF2 and LATS2 are found in ˜30% of mesotheliomas and mutations in STK11 are found in 18% of lung cancers (Table S3). Previous studies have shown that aberrations in LATS2 and NF2 inactivate the Hippo pathway and overcome crowding-mediated YAP inhibition (Murakami et al., 2011). Despite the oncogenic effect of Hippo pathway mutations, the above studies would predict that the same inactivating mutations in the Hippo pathway genes (NF2, LATS2, STK11) could have an important effect, which can be exploited in chemotherapy: they might be hypersensitive to gemcitabine even in highly crowded conditions and increase the effectiveness of treatment. […] Furthermore, previous studies have shown that mutations in STK11 (LKB1) in lung cancer cell lines confer sensitivity to gemcitabine while ectopic expression of STK11 causes resistance (Xia et al., 2014; Yang, 2014). STK11 has been identified as an upstream kinase that negatively regulates YAP activity (Mohseni et al., 2014). […] Genetic aberrations in the Hippo pathway can be predictive biomarkers for response to gemcitabine.

[5] = tested on: H2052 mesothelioma cells (LATS2 deletion); test: Cell growth of H2052 mesothelioma cells; assay type: cell-based
[6] = tested on: H2052 (LATS2) cells; test: Gemcitabine and dFdU efflux by LC-MS/MS, H2052 cells; assay type: in vitro ADME; details: higher in H2052 (LATS2)
Text: Are defects in the Hippo pathway the major cause of gemcitabine sensitivity? […] Restoring the levels of LATS2 in H2052 cells caused an increase in the mRNA and proteins levels of ABCG2 and CDA (FIGS. 23C, 36A-36M).

[7] = tested on: patient-derived xenograft (PDX) models; test: Patient-derived xenograft (PDX) models, tumor growth inhibition; assay type: in vivo, mouse; details: 20 PDX models, p=0.01
Text: An alternative to an endogenous mouse models for capturing effects of the tumor environment are patient-derived xenograft (PDX) models. […] At the cellular level, PDX models also preserve the intra-tumoral heterogeneity, as well as the molecular characteristics of the original cancer, including copy number variants, single-nucleotide polymorphisms, and gene expression profiles (Choi et al., 2014; DeRose et al., 2011). […] When patient-derived xenograft PDX models were used to assess whether YAP activation sensitizes solid tumors to gemcitabine significant effects were found. The studies were performed in the following manner: Tumor fragments (around 64 mm^3) were implanted into the flanks of recipient mice and tumor dimensions recorded with digital calipers. Once tumor implants reached a volume of approximately 200 mm3, dosing with gemcitabine (or vehicle control) began. At the completion of the study completion, the percent tumor growth inhibition (% TGI) was calculated for gemcitabine (G) and the vehicle control (C) using initial (i) and final (f) tumor measurements by the formula: % TGI=[1−(Gf−Gi)/(Cf−Ci)]x100.
Patient-derived xenograft (PDX) models. PDX models were established by Champions Oncology (Baltimore, Md.) as described previously (Khor et al., 2015). Drug response to 20 PDX models was obtained from Champions TumorGraft® Database (available on the world wide web at database.championsoncology.com/).
Immunohistochemistry. Human primary tumor tissue slides were obtained from Champions Oncology (Baltimore, Md.). Immunohistochemistry using anti YAP1 antibody (Abcam Cat # ab52771) was performed as previously described (Shi et al., 1999). For negative controls, primary antibody was omitted. The intensity of YAP staining was assessed by an independent pathologist using a four-grade scale: “0” is negative. “0.5” is borderline staining with no significance. “1” is weak staining. “1.5” is weak staining with foci of moderate staining. “2” is moderate staining. […] YAP scoring index was calculated based on staining intensity * % of positive target cells.

Nc1ccn([C@@H]2O[C@H](CO)[C@@H](O)C2(F)F)c(=O)n1 [Gemcitabine, Gemcitabine hydrochloride]
EC50 ([1]; high density, read-out: High density (EC50, nM) 02.13-WT): 1100 nM
EC50 ([1]; low density, read-out: Low density (EC50, nM) 02.13-WT): 1.6 nM
EC50 ([2]; high density, read-out: High density (EC50, nM) 02.13-YAPS6A): 17 nM
EC50 ([2]; low density, read-out: Low density (EC50, nM) 02.13-YAPS6A): 1.7 nM
Sensitization by expression of YAPS6A ([2]; suppression of the Hippo pathway, high cell density): sensitized
Efficacy in inhibiting cell growth when the Hippo pathway was inhibited [3]: increased efficacy in inhibiting cell growth
EC50 [4]: < 1 µM
Sensitivity of mesothelioma cells harboring LATS2 deletion [5]: sensitive
Effluxed gemcitabine in media, H2052 (LATS2) vs parental H2052 (LATS2−/−) [6]: ~10 fold
Difference in % TGI, high vs low YAP activity tumors [7]: ~2 fold
